Results from US20260158017A1, “KIF18A INHIBITOR” (WIGEN BIOMEDICINE TECHNOLOGY (SHANGHAI) CO., LTD., priority 2021, published 2026).
pEC50, pIC50: −log10 of the molar value.

Key:
[1] = target: T1, Recombinant human KIF18A (1-467His-tagged) protein (Homo sapiens, UniProt Q8NI77); experiment: KIF18A enzyme assay (microtubule-stimulated ATPase activity, ADP-Glo); type: biochemical; conditions: 30 nM KIF18A, 75 μM ATP, 30 μg/mL pig microtubules; read-out: Inhibitory activity against KIF18A IC50
T1 construct: Recombinant human KIF18A (1-467His-tagged) protein; His; made in house
T1 sequence (Q8NI77 1-467): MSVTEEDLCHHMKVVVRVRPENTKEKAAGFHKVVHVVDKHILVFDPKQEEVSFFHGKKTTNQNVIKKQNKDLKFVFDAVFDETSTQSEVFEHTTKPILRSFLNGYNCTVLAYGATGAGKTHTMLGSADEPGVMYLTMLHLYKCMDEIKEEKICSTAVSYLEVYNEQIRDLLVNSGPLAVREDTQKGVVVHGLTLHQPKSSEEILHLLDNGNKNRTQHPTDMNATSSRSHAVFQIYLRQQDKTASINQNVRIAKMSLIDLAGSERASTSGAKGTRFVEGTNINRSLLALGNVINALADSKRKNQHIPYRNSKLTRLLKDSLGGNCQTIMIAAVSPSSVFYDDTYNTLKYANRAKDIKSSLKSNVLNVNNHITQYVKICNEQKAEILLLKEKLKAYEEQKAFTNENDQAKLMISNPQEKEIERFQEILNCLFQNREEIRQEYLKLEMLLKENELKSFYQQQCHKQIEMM
T1 sequence (P02550 whole entry partner): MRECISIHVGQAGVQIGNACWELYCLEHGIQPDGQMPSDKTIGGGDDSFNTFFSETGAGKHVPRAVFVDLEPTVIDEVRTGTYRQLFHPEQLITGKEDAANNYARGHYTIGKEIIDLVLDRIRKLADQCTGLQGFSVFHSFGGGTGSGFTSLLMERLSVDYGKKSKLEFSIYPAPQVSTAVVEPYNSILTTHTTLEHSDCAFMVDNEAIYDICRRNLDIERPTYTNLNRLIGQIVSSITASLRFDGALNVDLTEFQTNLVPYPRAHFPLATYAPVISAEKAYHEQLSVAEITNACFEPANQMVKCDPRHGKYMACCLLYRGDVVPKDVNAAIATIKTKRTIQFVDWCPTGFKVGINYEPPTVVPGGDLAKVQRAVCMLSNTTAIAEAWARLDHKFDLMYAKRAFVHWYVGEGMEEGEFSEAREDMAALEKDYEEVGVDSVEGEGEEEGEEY
T1 sequence (P02554 whole entry partner): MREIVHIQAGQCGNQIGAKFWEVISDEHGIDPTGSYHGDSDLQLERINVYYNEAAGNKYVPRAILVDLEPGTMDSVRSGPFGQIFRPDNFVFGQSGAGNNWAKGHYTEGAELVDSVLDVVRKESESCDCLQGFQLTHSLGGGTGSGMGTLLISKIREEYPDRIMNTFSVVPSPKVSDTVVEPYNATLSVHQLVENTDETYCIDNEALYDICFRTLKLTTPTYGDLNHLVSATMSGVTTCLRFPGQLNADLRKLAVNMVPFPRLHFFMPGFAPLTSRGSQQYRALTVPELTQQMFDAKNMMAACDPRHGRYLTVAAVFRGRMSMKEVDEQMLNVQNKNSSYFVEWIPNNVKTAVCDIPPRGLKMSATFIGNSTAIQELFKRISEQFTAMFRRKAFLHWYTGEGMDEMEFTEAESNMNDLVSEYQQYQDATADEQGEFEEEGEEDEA
Outline: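 Buffer 15 mM Tris pH 7.5, 10 mM MgCl2, 0.01% Pluronic F-68, 1 μM paclitaxel, 30 μg/mL pig microtubules; reactions at room temperature. IC50 from inhibition relative to DMSO.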

HT-29 cells = experiment: In vitro anti-proliferative activity against HT-29 cells (intracellular ATP content, 72 h); type: cell-based; conditions: Homo sapiens, 72 h after dosing
Method: Biological Example 2. In Vitro Anti-Proliferative Activity of the Compounds of the Present Invention Against HT-29 Cells
(§1) HT-29 cells were seeded on a 384-well plate at 3000 cells/well. After overnight adherence culture, DMSO or the compounds serially 1:5-diluted from 5 μM were added. The viability of the cells was assessed 72 h after dosing by measuring the intracellular ATP content. The inhibition percentages of viable cells by the compounds were calculated by comparing with the DMSO group, and the IC50 values were also calculated.

HCT116 cells = experiment: In vitro anti-proliferative activity against HCT116 cells (intracellular ATP content, 72 h); type: cell-based; conditions: for pIC50: Homo sapiens, HCT-116, 72 h after dosing
Method: Biological Example 3. In Vitro Anti-Proliferative Activity of the Compounds of the Present Invention Against HCT116 Cells
as §1, with “HCT116” for “HT-29”, “IC 50” for “IC50”

[2] = test system: Histone H3 Ser10 sites in HT29 cells; experiment: Phosphorylation assay of histone H3 Ser10 sites in HT29 cells (immunofluorescence assay); type: cell-based; conditions: Homo sapiens, HT-29, 6 h after addition, FITC/DAPI ratio
Method: Biological Example 5. Phosphorylation Assay of Histone H3 Ser10 Sites in HT29 Cells (Immunofluorescence Assay)
HT29 cells were seeded in a 96-well plate (Fisher 160376) at 8000 cells/well. The next day, the serially diluted compounds were added. 6 h after the addition of the compounds, the cells were washed once with 1×PBS, immobilized with 4% PFA for 15 min, further washed three times with 1×PBS, and permeabilized with 0.02% Triton-X100 for 10 min. A blocking buffer was then added for blocking for 15-30 min, and 1:3000-diluted primary antibodies (Phospho-Histone H3 (Ser10) (D7N8E) XP® Rabbit mAb #53348) were added. The plate was placed at 4° C. overnight. The next day, the cells were washed three times with 1×PBS, and 1:1000-diluted secondary antibodies (Fluorescein (FITC)-conjugated Affinipure Goat Anti-Rabbit IgG (H+L)) were added. The cells were incubated in the dark for 1-2 h and washed three times with 1×PBS. The nuclei were stained with DAPI, and after the staining was completed, photographs were taken using an MD ImageXpress Pico personal high-content imaging analysis system. The ratio of phosphorylation (FITC/DAPI) at H3 Ser10 sites in HT29 cells was quantified. To evaluate the effects of the compounds on the mitosis phase of HT29 cells, the EC50 values of the compounds were calculated.

[3] = test system: HT29 subcutaneous xenograft tumor; experiment: In vivo pharmacodynamic study, mouse HT29 subcutaneous xenograft tumor model; set-up: species or system BALB/c nude mice; conditions: for Tumor volume on day 1 of treatment / Tumor volume on day 28 of treatment / TGI (tumor growth inhibition): 80 mg/kg intragastric once daily; for Tumor volume on day 1 of treatment: baseline day 1; for TGI (tumor growth inhibition): day 28 vs day 1
Method: Biological Example 4. In Vivo Pharmacodynamic Study-Mouse HT29 Subcutaneous Xenograft Tumor Model
BALB/c nude mice were inoculated subcutaneously with 5×10^6 HT29 cells on the left dorsal side. After the tumors grew to 100-150 mm^3, the mice were randomly divided into the following groups for intragastric administration once daily: group 1: vehicle control group; group 2: compound 661 (80 mg/kg); group 3: compound 669 (80 mg/kg); group 4: compound 677 (80 mg/kg); group 5: compound 714 (80 mg/kg); group 6: compound 727 (80 mg/kg); group 7: compound 740 (80 mg/kg); and group 8: AMG650 (80 mg/kg). The tumor volume was measured twice weekly and at the end of treatment.

pIC50 [1]	pIC50 (HT-29 cells)	pIC50 (HCT116 cells)	pEC50 [2]	SMILES	Tumor volume on day 1 of treatment [3] [mm^3]	Tumor volume on day 28 of treatment [3] [mm^3]	TGI (tumor growth inhibition) [3] [%]	Inhibitory effect on HT29 mouse subcutaneous xenograft tumor (in words) ([3]; 80 mg/kg, comparison with AMG650)	Anti-proliferative activity against HCT116 cells (in words) (HCT116 cells)
≥ 7.00	7.26	< 5.00	7.34	O=C(Nc1ccc([N+](=O)[O-])c(N2CCC(F)(F)CC2)n1)c1ccc(NS(=O)(=O)CCO)cc1N1CCC2(CC1)CC2 [Compound 65]	–	–	–	–	–
≥ 7.00	7.23	< 5.00	7.80	COc1ccc(C(=O)Nc2ccc(NS(=O)(=O)CCO)cc2N2CCC3(CC2)CC3)nc1N1CCC(F)(F)CC1 [Compound 321]	–	–	–	–	–
–	7.12	< 5.00	7.66	CNc1ccc(NC(=O)c2ccc(NS(=O)(=O)CCO)cc2N2CCC3(CC2)CC3)cc1N1CCC(F)(F)CC1 [Compound 641]	–	–	–	–	–
–	7.59	< 5.00	7.63	COc1ccc(NC(=O)c2ccc(NS(=O)(=O)CCOC(C)=O)cc2N2CCC3(CC2)CC3)nc1N1CCC(F)(F)CC1 [Compound 661]	121	704	61	–	–
≥ 7.00	7.95	< 5.00	8.08	COc1ccc(NC(=O)c2ccc(NS(=O)(=O)CCO)cc2N2CCC3(CC2)CC3)nc1N1CCC(F)(F)CC1 [Compound 257]	–	–	–	–	–
–	–	–	7.41	COc1ccc(NC(=O)c2ccc(NS(=O)(=O)CCOC(=O)[C@@H](N)C(C)C)cc2N2CCC3(CC2)CC3)nc1N1CCC(F)(F)CC1 [Compound 714]	121	424	80	stronger inhibitory effects	–
–	7.15	< 5.00	7.16	CN(C)c1ccc(NC(=O)c2ccc(NS(=O)(=O)CCO)cc2N2CCC3(CC2)CC3)cc1N1CCC(F)(F)CC1 [Compound 645]	–	–	–	–	–
≥ 7.00	7.13	< 5.00	7.37	COc1ccc(C(=O)Nc2cnc(NS(=O)(=O)CCO)cc2N2CCC3(CC2)CC3)nc1N1CCC(F)(F)CC1 [Compound 353]	–	–	–	–	–
≥ 7.00	7.18	< 5.00	7.58	O=C(Nc1ccc(NS(=O)(=O)CCO)cc1N1CCC2(CC1)CC2)c1ccc([N+](=O)[O-])c(N2CCC(F)(F)CC2)n1 [Compound 161]	–	–	–	–	–
–	7.46	< 5.00	7.55	COc1ccc(NC(=O)c2ccc(NS(=O)(=O)CCOC(=O)C(C)C)cc2N2CCC3(CC2)CC3)nc1N1CCC(F)(F)CC1 [Compound 663]	–	–	–	–	–

SMILES	pIC50 [1]	pIC50 (HT-29 cells)	pIC50 (HCT116 cells)	pEC50 [2]	Tumor volume on day 1 of treatment [3] [mm^3]	Tumor volume on day 28 of treatment [3] [mm^3]	TGI (tumor growth inhibition) [3] [%]	Inhibitory effect on HT29 mouse subcutaneous xenograft tumor (in words) ([3]; 80 mg/kg, comparison with AMG650)	Anti-proliferative activity against HCT116 cells (in words) (HCT116 cells)
Cc1cc(NC(=O)c2ccc(NS(=O)(=O)CCO)cc2N2CCC3(CC2)CC3)nc(N2CCC(F)(F)CC2)n1 [AMG650, reference compound]	–	6.96	< 5.00	7.28	121	649	64	–	neither the compounds of the present invention nor AMG650 have anti-proliferative activity
